Experimental data taken from ChEMBL document CHEMBL4364352, “Inhibitors of KRAS May Potentially Provide Effective Cancer Treatment” (ACS Med Chem Lett, 2019).

How the values were obtained:
GTPase KRas [1] = target: T1, GTPase KRas (Homo sapiens, UniProt P01116, G12C); test: Inhibition of KRAS G12C mutant in human MIAPaCa2 cells assessed as increase in accumulation of GDP bound KRAS G12C mutant protein incubated for 6 hrs; assay type: cell-based
GTPase KRas [2] = target: T1, GTPase KRas; test: Inhibition of KRAS G12C mutant in human NCI-H358 cells assessed as increase in accumulation of GDP bound KRAS G12C mutant protein incubated for 6 hrs; assay type: cell-based

T1 sequence (P01116 whole entry G12C): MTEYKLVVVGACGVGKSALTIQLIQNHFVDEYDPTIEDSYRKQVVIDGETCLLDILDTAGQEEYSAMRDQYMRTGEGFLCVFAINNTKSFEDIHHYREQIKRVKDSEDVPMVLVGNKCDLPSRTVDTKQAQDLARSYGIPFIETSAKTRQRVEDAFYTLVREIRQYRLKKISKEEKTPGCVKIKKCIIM

| SMILES | IC50 (GTPase KRas [1]) [µM] | IC50 (GTPase KRas [2]) [µM] |
| --- | --- | --- |
| C=CC(=O)N1CCN(c2ncnc3c2CCC(c2c(C)ccc4[nH]ncc24)C3)[C@@H](C)C1 (stereo partly drawn) | 4.86 |  |
| C=CC(=O)N1CCN(c2nc(OC[C@H]3CCCN3C)nc3c2C[C@@H](C)[C@H](c2c(C)ccc4[nH]ncc24)C3)CC1 | 0.236 | 0.129 |
